Experimental data reported in PubChem BioAssay (NCI).
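Method: 48-hour compound exposure of cells in 96-well plates, five concentrations, linear interpolation of endpoints. GI50: concentration for 50% inhibition of growth. TGI is the concentration that stops growth completely.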

Legend:
Experiment in all cases: growth of human tumour cells (NCI), 48 h
786-0 renal = system: 786-0 renal
A498 renal = system: A498 renal
A549 NSCLC = system: A549 NSCLC
ACHN renal = system: ACHN renal
BT-549 breast = system: BT-549 breast
CAKI-1 renal = system: CAKI-1 renal
CCRF-CEM leukemia = system: CCRF-CEM leukemia
COLO 205 colon = system: COLO 205 colon
DU-145 prostate = system: DU-145 prostate
EKVX NSCLC = system: EKVX NSCLC
HCC-2998 colon = system: HCC-2998 colon
HCT-116 colon = system: HCT-116 colon
HCT-15 colon = system: HCT-15 colon
HL-60(TB) leukemia = system: HL-60(TB) leukemia
HOP-62 NSCLC = system: HOP-62 NSCLC
HOP-92 NSCLC = system: HOP-92 NSCLC
HS 578T breast = system: HS 578T breast
HT29 colon = system: HT29 colon
IGROV1 ovarian = system: IGROV1 ovarian
K-562 leukemia = system: K-562 leukemia
KM12 colon = system: KM12 colon
LOX IMVI melanoma = system: LOX IMVI melanoma
M14 melanoma = system: M14 melanoma
MALME-3M melanoma = system: MALME-3M melanoma
MCF7 breast = system: MCF7 breast
MDA-MB-231 breast = system: MDA-MB-231 breast
MOLT-4 leukemia = system: MOLT-4 leukemia
NCI-H226 lung = system: NCI-H226 lung
NCI-H460 lung = system: NCI-H460 lung
NCI-H522 lung = system: NCI-H522 lung
NCI/ADR-RES ovarian = system: NCI/ADR-RES ovarian
OVCAR-3 ovarian = system: OVCAR-3 ovarian
OVCAR-4 ovarian = system: OVCAR-4 ovarian
OVCAR-5 ovarian = system: OVCAR-5 ovarian
OVCAR-8 ovarian = system: OVCAR-8 ovarian
PC-3 prostate = system: PC-3 prostate
RPMI-8226 leukemia = system: RPMI-8226 leukemia
RXF 393 renal = system: RXF 393 renal
SF-268 CNS = system: SF-268 CNS
SF-295 CNS = system: SF-295 CNS
SF-539 CNS = system: SF-539 CNS
SK-MEL-2 melanoma = system: SK-MEL-2 melanoma
SK-MEL-28 melanoma = system: SK-MEL-28 melanoma
SK-MEL-5 melanoma = system: SK-MEL-5 melanoma
SK-OV-3 ovarian = system: SK-OV-3 ovarian
SN12C renal = system: SN12C renal
SNB-19 CNS = system: SNB-19 CNS
SNB-75 CNS = system: SNB-75 CNS
SR leukemia = system: SR leukemia
SW-620 colon = system: SW-620 colon
T-47D breast = system: T-47D breast
TK-10 renal = system: TK-10 renal
U251 CNS = system: U251 CNS
UACC-257 melanoma = system: UACC-257 melanoma
UACC-62 melanoma = system: UACC-62 melanoma
UO-31 renal = system: UO-31 renal

CCOC(=O)Nc1cccc(-n2cnc3cc(-c4ccc(O)cc4)ccc32)c1
GI50 (786-0 renal): 719 nM
TGI (786-0 renal): > 54800 nM
GI50 (A498 renal): 697 nM
TGI (A498 renal): 4530 nM
GI50 (A549 NSCLC): 380 nM
TGI (A549 NSCLC): > 45600 nM
GI50 (ACHN renal): 260 nM
TGI (ACHN renal): > 67400 nM
GI50 (BT-549 breast): 132 nM
TGI (BT-549 breast): 4400 nM
GI50 (CAKI-1 renal): 343 nM
TGI (CAKI-1 renal): > 76800 nM
GI50 (CCRF-CEM leukemia): 144 nM
TGI (CCRF-CEM leukemia): > 100000 nM
GI50 (COLO 205 colon): 232 nM
TGI (COLO 205 colon): > 34600 nM
GI50 (DU-145 prostate): 391 nM
TGI (DU-145 prostate): > 45300 nM
GI50 (EKVX NSCLC): 885 nM
TGI (EKVX NSCLC): > 47800 nM
GI50 (HCC-2998 colon): 310 nM
TGI (HCC-2998 colon): > 66700 nM
GI50 (HCT-116 colon): 141 nM
TGI (HCT-116 colon): > 46200 nM
GI50 (HCT-15 colon): 44.7 nM
TGI (HCT-15 colon): > 37800 nM
GI50 (HL-60(TB) leukemia): 36 nM
TGI (HL-60(TB) leukemia): 1210 nM
GI50 (HOP-62 NSCLC): 770 nM
TGI (HOP-62 NSCLC): > 59800 nM
GI50 (HOP-92 NSCLC): 1450 nM
TGI (HOP-92 NSCLC): 13600 nM
GI50 (HS 578T breast): 317 nM
TGI (HS 578T breast): > 30700 nM
GI50 (HT29 colon): 143 nM
TGI (HT29 colon): 1100 nM
GI50 (IGROV1 ovarian): 561 nM
TGI (IGROV1 ovarian): > 46500 nM
GI50 (K-562 leukemia): 42.6 nM
TGI (K-562 leukemia): > 100000 nM
GI50 (KM12 colon): 283 nM
TGI (KM12 colon): 6020 nM
GI50 (LOX IMVI melanoma): 245 nM
TGI (LOX IMVI melanoma): > 39900 nM
GI50 (M14 melanoma): 63.4 nM
TGI (M14 melanoma): > 37800 nM
GI50 (MALME-3M melanoma): 774 nM
TGI (MALME-3M melanoma): > 48800 nM
GI50 (MCF7 breast): 141 nM
TGI (MCF7 breast): > 35700 nM
GI50 (MDA-MB-231 breast): 267 nM
TGI (MDA-MB-231 breast): > 67400 nM
GI50 (MOLT-4 leukemia): 114 nM
TGI (MOLT-4 leukemia): 37200 nM
GI50 (NCI-H226 lung): 1260 nM
TGI (NCI-H226 lung): 6770 nM
GI50 (NCI-H460 lung): 192 nM
TGI (NCI-H460 lung): > 34200 nM
GI50 (NCI-H522 lung): 56.1 nM
TGI (NCI-H522 lung): 333 nM
GI50 (NCI/ADR-RES ovarian): 84.9 nM
TGI (NCI/ADR-RES ovarian): 25400 nM
GI50 (OVCAR-3 ovarian): 56.2 nM
TGI (OVCAR-3 ovarian): 2170 nM
GI50 (OVCAR-4 ovarian): 1580 nM
TGI (OVCAR-4 ovarian): > 55800 nM
GI50 (OVCAR-5 ovarian): 600 nM
TGI (OVCAR-5 ovarian): > 75100 nM
GI50 (OVCAR-8 ovarian): 302 nM
TGI (OVCAR-8 ovarian): > 33700 nM
GI50 (PC-3 prostate): 145 nM
TGI (PC-3 prostate): > 100000 nM
GI50 (RPMI-8226 leukemia): 342 nM
TGI (RPMI-8226 leukemia): 3780 nM
GI50 (RXF 393 renal): 157 nM
TGI (RXF 393 renal): 681 nM
GI50 (SF-268 CNS): 2190 nM
TGI (SF-268 CNS): > 71600 nM
GI50 (SF-295 CNS): 102 nM
TGI (SF-295 CNS): > 100000 nM
GI50 (SF-539 CNS): 182 nM
TGI (SF-539 CNS): 15000 nM
GI50 (SK-MEL-2 melanoma): 204 nM
TGI (SK-MEL-2 melanoma): > 43800 nM
GI50 (SK-MEL-28 melanoma): 1620 nM
TGI (SK-MEL-28 melanoma): > 45900 nM
GI50 (SK-MEL-5 melanoma): 167 nM
TGI (SK-MEL-5 melanoma): 2370 nM
GI50 (SK-OV-3 ovarian): 618 nM
TGI (SK-OV-3 ovarian): > 72000 nM
GI50 (SN12C renal): 498 nM
TGI (SN12C renal): > 55000 nM
GI50 (SNB-19 CNS): 313 nM
TGI (SNB-19 CNS): > 100000 nM
GI50 (SNB-75 CNS): 48.6 nM
TGI (SNB-75 CNS): > 41100 nM
GI50 (SR leukemia): 32 nM
TGI (SR leukemia): > 45200 nM
GI50 (SW-620 colon): 64.7 nM
TGI (SW-620 colon): > 47400 nM
GI50 (T-47D breast): 940 nM
TGI (T-47D breast): > 29300 nM
GI50 (TK-10 renal): 1470 nM
TGI (TK-10 renal): > 64800 nM
GI50 (U251 CNS): 158 nM
TGI (U251 CNS): > 47100 nM
GI50 (UACC-257 melanoma): 1270 nM
TGI (UACC-257 melanoma): > 42500 nM
GI50 (UACC-62 melanoma): 367 nM
TGI (UACC-62 melanoma): > 36900 nM
GI50 (UO-31 renal): 388 nM
TGI (UO-31 renal): > 36900 nM
